In US20250382588A1, “CHIMERIC AAV AND USES THEREOF” (priority 2023, published 2025):

Columns and labels:
[1] = Rotation behavior after nigral EYFP control AAV and CNO; assay type: in vivo, mice; settings: for rotation behavior (FIG. 6C): AAV8R12-G88P3-EYFP; for rotation behavior (FIG. 6C) / rotation behavior (FIG. 7C): n=5; for rotation behavior (FIG. 7C): AAV8R12-G88P7-EYFP
Method: Mice were anesthetized with sodium pentobarbital (Nembutal; 80 mg/kg, i.p.), and then placed into a stereotaxic device (KOPF). Eye cream was applied on both corneas to avoid dehydration. The skull above the targeted areas was thinned with a dental drill and carefully removed. Injections were conducted with a 10 μL syringe connected to a 33-Gauge needle (Neuros; Hamilton), using a microsyringe pump (Legato 130, KD Scientific). A total volume of 200 nL virus was injected into the SNr at a speed of 20 nL/min. The coordinates for the SNr were 3.4 mm posterior, 1.3 mm lateral, 4.8 mm ventral to the bregma.
Mice that were used in the behavioral experiments were then implanted with guide cannulas (KOPF) unilaterally aiming at the dorsomedial striatum (0.5 mm anterior, 1.5 mm lateral, 3.5 mm ventral to the bregma). The cannulas were fixed to the skull with dental cement. Stainless steel obturators were inserted into the guide cannulas and were replaced every other day to maintain the patency until infusions were made. Mice were allowed to recover from the surgery for at least 3 weeks before further studies.
Mice were individually handled for 10-20 seconds per day for at least 5 days to habituate them to the experimenter. The open field test was conducted in a test apparatus (50 cm×50 cm×50 cm) with an HD digital camera (Sony) positioned above the arena. On day one, mice were habituated to the apparatus for 10 minutes. On day 2, mice were administrated saline (0.1 mL i.p. or 200 nL intracranially [i.c.] through the guide cannulas). On day 3, mice were administrated with Clozapine-N-oxide (CNO, Hello Bio, HB1807; 0.3 mg/kg i.p. or 200 nL at 100 μM i.e.). All behavioral tests were conducted 30 minutes after injection. During the test, mice were allowed to freely explore the apparatus for 10 minutes. The behavioral data were analyzed with ANY-maze software (Stoelting Co.).

c-Fos+ cells in the SNr = test: c-Fos staining in the SNr after CNO; assay type: in vivo, mice; settings: AAV8R12-G88P3-HA-hM3Dq
[2] = test system: retrogradely labeled D1-MSNs; test: Striatal slice whole-cell recordings of retrogradely labeled MSNs; assay type: cell-based, mice; settings: AAV8R12-G88P3-HA-hM3Dq-2A-EYFP; CNO 10 μM
Excerpt: Mice from different groups were anesthetized with […] isoflurane, and then decapitated. The brain was quickly extracted and placed in ice-cold N-methyl-D-glucamine (NMDG) cutting solution containing (in mM): 92 NMDG, 2.5 KCl, 25 NaHCO3, 1.25 NaH2PO4, 4.5 D-Glucose, 20 HEPES, 5 L-ascorbic acid, 3 Na-pyruvate, 2 Thiourea, 10 MgSO4, 0.5 CaCl2). The pH was adjusted to 7.2±0.1 using HCl and the osmolarity was adjusted to 305±5 mosmol/L using NMDG. The solution was bubbled with 95% O2/5% CO2 prior to use. Coronal striatum slices were cut in 250-[…] thickness with a vibratome slicer (Leica, VT1200 S), and then incubated in artificial cerebrospinal fluid (aCSF) saturated with 95% O2/5% CO2 for at least 45 min at 37° C. before recording. The aCSF contains (in mM) 125 NaCl, 1.25 KCl, 25 NaHCO3, 1.25 KH2PO4, 25 D-Glucose, 2 CaCl2) and 1 MgCl2, supplemented with 2 mM Na-pyruvate, 3 mM Myo-inositol and 0.4 mM L-ascorbic acid.
The acute striatum slice was transferred to the recording chamber with a constant perfusion of oxygenized aCSF at the rate of 3 ml/min. Neurons were visualized using an upright microscope (Olympus, BX-51) with a 40× water immersion objective at room temperature (˜25° C.). […] Neurons were quickly visualized under fluorescence microscope and then patch clamp were achieved under infrared light illumination and CCD camera. […]

hM3Dq = molecular target: T1, hM3Dq (Homo sapiens, UniProt P20309, A239G/Y149C); test: Electrophysiological recording in caudate after CNO infusion, AAV8R12-G88P3-HA-hM3Dq macaques; assay type: in vivo
T1 construct: HA (N); expressed in transfected cells; host or cells: neurons (striatal D1-MSNs, some SNr neurons) of C57BL/6J mice or cynomolgus macaques transduced by nigral AAV8R12-G88P3-HA-hM3Dq
Method: Electrophysiological recording was performed through a recording chamber while the monkey was anesthetized. Neural responses were recorded by a 16-channel linear probe (Plexon Inc, Uprobe) driven by a mechanical microdrive (Alpha Omega, FlexMT). Signals were passed through a head stage (Plexon Inc, HST/16V-G20 LN) and then split and filtered between 300 Hz and 5 kHz to identify spiking activity with an amplifier system (Plexon Inc, OmniPlex). Detected spikes were then sorted by commercially available software (Plexon Inc, Offline Sorter) for further analysis. To quantify the effect of CNO/DCZ injection, neural activity was recorded for 60 minutes following CNO/DCZ injection. The response time-course for each channel was obtained by counting the spikes within every 10-minute window and then normalizing to the maximal.
To determine the effect of CNO/DCZ injection on the direction of signal change, we performed Pearson correlation between neural responses and time using the ‘corr’ function in Matlab, which generates the correlation coefficient ‘r’ and significant level ‘p’. A neuron was considered to have “Increased” activity when r>0 and p<[…]; and considered to have “Decreased” activity when r<0 and p<0.05. Otherwise, neurons were considered to be “Unchanged” in their neural activities. The responses of all increased neurons were then averaged after being normalized by the maximal response (Crowe et al., 2014; Dai and Wang, 2018; Hirokawa et al., 2019) following CNO/DCZ injection, and then plotted as a function of time to generate the normalized population response.

[3] = monkey CM045, 34 cells in caudate

T1 sequence (P20309 whole entry Y149C/A239G, the tested form may be a part): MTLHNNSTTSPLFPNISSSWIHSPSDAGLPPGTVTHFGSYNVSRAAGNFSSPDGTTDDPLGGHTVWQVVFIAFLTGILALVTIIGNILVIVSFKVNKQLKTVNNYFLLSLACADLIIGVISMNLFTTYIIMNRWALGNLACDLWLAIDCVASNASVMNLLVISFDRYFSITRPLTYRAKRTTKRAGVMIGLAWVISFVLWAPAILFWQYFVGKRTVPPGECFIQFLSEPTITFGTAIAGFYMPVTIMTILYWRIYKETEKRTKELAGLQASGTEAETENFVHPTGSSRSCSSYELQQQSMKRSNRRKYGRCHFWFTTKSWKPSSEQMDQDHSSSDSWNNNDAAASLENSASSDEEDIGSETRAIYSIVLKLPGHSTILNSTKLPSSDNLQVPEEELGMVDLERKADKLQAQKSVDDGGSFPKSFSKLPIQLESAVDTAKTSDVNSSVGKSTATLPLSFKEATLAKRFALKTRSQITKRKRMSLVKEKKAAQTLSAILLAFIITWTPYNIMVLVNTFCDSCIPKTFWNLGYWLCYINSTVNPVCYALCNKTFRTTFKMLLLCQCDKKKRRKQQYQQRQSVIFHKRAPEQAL

With `C[N+]1([O-])CCN(C2=Nc3cc(Cl)ccc3Nc3ccccc32)CC1` [CNO, clozapine N-oxide] the “rotation behavior (FIG. 6C)” value ([1]; CNO i.p.) was 44.72±10.89, the “rotation behavior (FIG. 6C)” value ([1]; CNO intracranial) was 61.39±5.774 and the “rotation behavior (FIG. 7C)” value ([1]; CNO i.p.) was 46.88±7.497. For the same compound, the “rotation behavior (FIG. 7C)” value ([1]; CNO intracranial) was 34.55±7.536, the “rotational behaviors, in words” value ([1]; animals that received the EYFP control vector named at the place) was “didn't induce rotational behaviors” and the “c-Fos+ cells in the right SNr” value (c-Fos+ cells in the SNr; CNO intraperitoneal) was “significant increase”. For the same compound, the “number of nigral c-Fos+ cells” value (c-Fos+ cells in the SNr; intracranial CNO infusions) was “No significant changes”, the “excitability of transduced MSNs” value [2] was “augmentation of excitability” and the “cells activated (FIG. 12L)” value (hM3Dq; 34 total cells in the caudate) was 67.6%. For the same compound, the “cells inactivated (FIG. 12L)” value (hM3Dq; 34 total cells in the caudate) was 2.9%, the “cells unchanged (FIG. 12L)” value (hM3Dq; 34 total cells in the caudate) was 29.4% and the “cells activated (FIG. 12C)” value (hM3Dq; [3]) was 70.6%. The “cells inactivated (FIG. 12C)” value (hM3Dq; [3]) was 8.8% and the “cells unchanged (FIG. 12C)” value (hM3Dq; [3]) was 20.6%.
